pIC50: −log10 of the molar value.

Our source for the IC50 values is patent US11590139B2, “Substituted aminopurine compounds, compositions thereof, and methods of treatment therewith” (Signal Pharmaceuticals, LLC, priority 2014, dated 2023).

The first assay has as its system Lox-IMVI melanoma cell line. The assay is described as follows: Lox-IMVI anti-proliferative assay (growth inhibition, Cell Titer-Glo). It is filed as cell-based, human. The note with it: Homo sapiens; IC50 activity level in the cell-based Lox-IMVI anti-proliferative assay; read-out: Activity. The method in brief:
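RPMI/10% FBS; cmpd 0.5 nM–10 μM, 3-fold ×10, duplicate, 0.2% DMSO final; 72 h, 37 °C, 5% CO2. ATP-luminescence readout at t0 and 72 h. IC50 = 50% of DMSO control, 4-parameter logistic fit.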
Background: ATP-based viability assays read luminescence as a measure of living cells.
On to `NC(=O)[C@H]1CC[C@@H](n2c(Nc3c(Cl)cc(Cl)cc3Cl)nc3cnc(N[C@@H]4CCCOC4)nc32)CC1` [Example 111, (1S,4s)-4-(2-((R)-tetrahydro-2H-pyran-3-ylamino)-8-(2,4,6-trichlorophenylamino)-9H-purin-9-yl)cyclohexanecarboxamide], for which the pIC50 was < 6.00.

Turning to `CC(C)(C)OC(=O)N1CCC[C@@H](Nc2ncc3nc(Nc4c(F)cc(F)cc4Cl)n([C@H]4CC[C@@H](C(N)=O)CC4)c3n2)C1` [Example 161, (R)-tert-butyl 3-(9-((1s,4S)-4-carbamoylcyclohexyl)-8-(2-chloro-4,6-fluorophenylamino)-9H-purin-2-ylamino)piperidine-1-carboxylate], the pIC50 is < 6.00.

With `NC(=O)[C@H]1CC[C@@H](n2c(Nc3c(F)cc(F)cc3F)nc3cnc(N[C@H]4C[C@H](O)C4)nc32)CC1` [Example 279, (1s,4s)-4-(2-((1r,3r)-3-hydroxycyclobutylamino)-8-(2,4,6-trifluorophenylamino)-9H-purin-9-yl)cyclohexanecarboxamide], the pIC50 was < 6.00.

For the molecule `CC(C)(C)OC(=O)N1CCC[C@@H](Nc2ncc3nc(Nc4c(Cl)cccc4Cl)n([C@H]4CC[C@@H](C(N)=O)CC4)c3n2)C1` [Example 160, (R)-tert-butyl 3-(9-((1s,4S)-4-carbamoylcyclohexyl)-8-(2,6-dichlorophenylamino)-9H-purin-2-ylamino)piperidine-1-carboxylate], the pIC50 was < 6.00.

For `NC(=O)[C@H]1CC[C@@H](n2c(Nc3c(Cl)cc(Cl)cc3Cl)nc3cnc(N[C@H]4C[C@H](O)C4)nc32)CC1` [Example 300, (1s,4s)-4-(2-((1r,3r)-3-hydroxycyclobutylamino)-8-(2,4,6-trichlorophenylamino)-9H-purin-9-yl)cyclohexanecarboxamide], the pIC50 was 6.00 to 6.30.

As to `NC(=O)[C@H]1CC[C@@H](n2c(Nc3c(Cl)cccc3Cl)nc3cnc(NC4CCC(F)(F)CC4)nc32)CC1` [Example 236, (1s,4s)-4-(8-(2,6-dichlorophenylamino)-2-(4,4-difluorocyclohexylamino)-9H-purin-9-yl)cyclohexanecarboxamide], the pIC50 is 6.30 to 6.60.

In the case of `NC(=O)[C@H]1CC[C@@H](n2c(Nc3cc(F)cc(Cl)c3F)nc3cnc(N[C@H]4C[C@H](O)C4)nc32)CC1` [Example 287, (1s,4s)-4-(8-(3-chloro-2,5-difluorophenylamino)-2-((1R,3r)-3-hydroxycyclobutylamino)-9H-purin-9-yl)cyclohexanecarboxamide], the pIC50 was < 6.00.

With `Cc1cc(Cl)c(Nc2nc3cnc(NC4CCOCC4)nc3n2[C@H]2CC[C@@H](C(N)=O)CC2)c(Cl)c1` [Example 116, (1s,4s)-4-(8-(2,6-dichloro-4-methylphenylamino)-2-(tetrahydro-2H-pyran-4-ylamino)-9H-purin-9-yl)cyclohexanecarboxamide], the pIC50 was < 6.00.

For `NC(=O)[C@H]1CC[C@@H](n2c(Nc3c(Cl)cc(Cl)cc3Cl)nc3cnc(N[C@H]4CCOC[C@@H]4F)nc32)CC1` [Example 246, (1R,4s)-4-(2-((3R,4S)-3-fluorotetrahydro-2H-pyran-4-ylamino)-8-(2,4,6-trichlorophenylamino)-9H-purin-9-yl)cyclohexanecarboxamide], the pIC50 is 6.00 to 6.30.

Consider `NC(=O)[C@H]1CC[C@@H](n2c(Nc3c(F)cc(Cl)cc3Cl)nc3cnc(N[C@@H]4CCC[C@H](O)C4)nc32)CC1` [Example 361, (1S,4s)-4-(8-(2,4-dichloro-6-fluorophenylamino)-2-((1R,3S)-3-hydroxycyclohexylamino)-9H-purin-9-yl)cyclohexanecarboxamide], for which the pIC50 is > 6.60.

The same assay, now with this note: Homo sapiens; Lox-IMVI anti-proliferative assay, IC50 activity level; read-out: Activity.
For the molecule `C[C@]1(C(N)=O)CC[C@@H](n2c(Nc3c(F)cc(F)cc3F)nc3cnc(NC4CCCC4)nc32)CC1` [Example 556, (1s,4s)-4-(2-(cyclopentylamino)-8-(2,4,6-trifluorophenylamino)-9H-purin-9-yl)-1-methylcyclohexanecarboxamide], the pIC50 is > 6.60.

For the molecule `NC(=O)[C@H]1CC[C@@H](n2c(Nc3c(F)cc(Cl)cc3F)nc3cnc(N[C@H]4CCCC[C@H]4O)nc32)CC1` [Example 515, (1R,4s)-4-(8-(4-chloro-2,6-difluorophenylamino)-2-((1S,2R)-2-hydroxycyclohexylamino)-9H-purin-9-yl)cyclohexanecarboxamide], the pIC50 was < 6.00.

As for `NC(=O)[C@H]1CC[C@@H](n2c(Nc3c(F)cc(F)cc3Cl)nc3cnc(N[C@H]4CCC(F)(F)C4)nc32)CC1` [Example 589, (1R,4s)-4-(8-(2-chloro-4,6-difluorophenylamino)-2-((S)-3,3-difluorocyclopentylamino)-9H-purin-9-yl)cyclohexanecarboxamide], the pIC50 was 6.30 to 6.60.

Regarding `C[C@]1(C(N)=O)CC[C@@H](n2c(Nc3c(Cl)cc(C(F)(F)F)cc3Cl)nc3cnc(NC4CCCC4)nc32)CC1` [Example 562, (1s,4s)-4-(2-(cyclopentylamino)-8-(2,6-dichloro-4-(trifluoromethyl)phenylamino)-9H-purin-9-yl)-1-methylcyclohexanecarboxamide], the pIC50 is < 6.00.

Consider `C[C@]1(C(N)=O)CC[C@@H](n2c(Nc3c(F)cc(C#N)cc3Cl)nc3cnc(NC4CC(F)(F)C4)nc32)CC1` [Example 583, (1s,4s)-4-(8-(2-chloro-4-cyano-6-fluorophenylamino)-2-(3,3-difluorocyclobutylamino)-9H-purin-9-yl)-1-methylcyclohexanecarboxamide], for which the pIC50 was > 6.60.

For the molecule `NC(=O)[C@H]1CC[C@@H](n2c(Nc3c(Cl)cc(C(F)(F)F)cc3Cl)nc3cnc(NC4CC5(COC5)C4)nc32)CC1` [Example 570, (1s,4s)-4-(2-(2-oxaspiro[3.3]heptan-6-ylamino)-8-(2,6-dichloro-4-(trifluoromethyl)phenylamino)-9H-purin-9-yl)cyclohexanecarboxamide], the pIC50 was < 6.00.

The same assay, now with this note: Homo sapiens; Lox-IMVI melanoma cell line, anti-proliferative assay; read-out: Activity (IC50 activity level).
On to `C[C@]1(C(N)=O)CC[C@@H](n2c(Nc3c(F)cc(C#N)cc3Cl)nc3cnc(N[C@@H]4CC[C@@H](O)C4)nc32)CC1` [Example 640, (1S,4s)-4-(8-(2-chloro-4-cyano-6-fluorophenylamino)-2-((1R,3R)-3-hydroxycyclopentylamino)-9H-purin-9-yl)-1-methylcyclohexanecarboxamide], for which the pIC50 was > 6.60.

`C[C@@H]1COCC[C@H]1Nc1ncc2nc(Nc3c(Cl)cc(Cl)cc3Cl)n([C@H]3CC[C@@](C)(C(N)=O)CC3)c2n1` [Example 727, (1S,4s)-1-methyl-4-(2-((3S,4R)-3-methyltetrahydro-2H-pyran-4-ylamino)-8-(2,4,6-trichlorophenylamino)-9H-purin-9-yl)cyclohexanecarboxamide]: the pIC50 is > 6.60.

In the case of `C[C@]1(C(N)=O)CC[C@@H](n2c(Nc3c(F)cc(C#N)cc3Cl)nc3cnc(N[C@@H]4CCC[C@@H](O)C4)nc32)CC1` [Example 623, (1S,4s)-4-(8-(2-chloro-4-cyano-6-fluorophenylamino)-2-((1R,3R)-3-hydroxycyclohexylamino)-9H-purin-9-yl)-1-methylcyclohexanecarboxamide], the pIC50 is 6.30 to 6.60.

With `N#Cc1cc(F)c(Nc2nc3cnc(N[C@H]4CCOC[C@H]4F)nc3n2[C@H]2CC[C@@H](C(N)=O)CC2)c(Cl)c1` [Example 670, (1R,4s)-4-(8-(2-chloro-4-cyano-6-fluorophenylamino)-2-((3S,4S)-3-fluorotetrahydro-2H-pyran-4-ylamino)-9H-purin-9-yl)cyclohexanecarboxamide], the pIC50 is > 6.60.
